Laboratory results published in publication PMC12582325 (Proceedings of the National Academy of Sciences of the …, 2025).
Several values for one entry are separate records, joined by “and”; a condition that tells them apart may be missing. Equal entries are not always repeated. Entries after “also recorded” stand apart in the source; their conditions may differ. Where two headings read alike, the source gives them in different places. Where a SMILES comes first, the peptide text is derived from it.

Tests used:
[1] = test system: Fg.Ste2; type: cell-based, Fusarium graminearum; details: 10 μM; Control mean 6548; mean of n = 4
[2] = test system: Fo.Ste2; type: cell-based, Fusarium oxysporum
[3] = test system: Bb.Ste2; type: cell-based, Beauveria bassiana
[4] = test system: Bc.Ste2; type: cell-based, Botrytis cinerea; details: 10 μM
[5] = test system: Bc.Ste2; type: cell-based, Botrytis cinerea; details: for Bc.Ste2 (activation): with Bc agonist, normalised
[6] = test system: Bc.Ste2; type: cell-based, Botrytis cinerea
[7] = test system: Bb.Ste2; type: cell-based, Beauveria bassiana; details: YPL1 library cocultured with Bb.Ste2 strain GEN88, 20 h, 2 d diploid enrichment, NextSeq 500
[8] = test system: Fg.Ste2; type: cell-based, Fusarium graminearum; details: YPL1 library cocultured with Fg.Ste2 strain GEN87, 20 h, 2 d diploid enrichment, NextSeq 500
[9] = test system: Fo.Ste2; test: YeMaP Library-on-One: YPL1 pheromone library enrichment by mating, NGS; type: cell-based, Fusarium oxysporum; details: YPL1 library cocultured with Fo.Ste2 strain GEN90, 20 h, 2 d diploid enrichment, NextSeq 500
[10] = test system: Bc.Ste2; type: cell-based, Botrytis cinerea; details: YPL1 library cocultured with Bc.Ste2 strain GEN89, 20 h, 2 d diploid enrichment, NextSeq 500
[11] = test system: Fo.Ste2; type: cell-based, Fusarium oxysporum; remark: listed apart in the source
[12] = test system: Fg.Ste2
[13] = test system: Bb.Ste2; type: cell-based, Beauveria bassiana; remark: listed apart in the source
[14] = test system: Hj.Hpr2; type: cell-based, Hypocrea jecorina
[15] = test system: no_GPCR (negative control lacking a GPCR); type: cell-based, Saccharomyces cerevisiae; details: SC + added peptide, individual replicates (n=3)
[16] = test system: Bb.Ste2; type: cell-based, Beauveria bassiana; details: Bb + Cm (Bb 0.0005 μM, Cm 10 μM); Control mean 6960; mean of n = 4
[17] = test system: Fg.Ste2; type: cell-based, Fusarium graminearum; details: Fg + Cm (Fg 0.5 μM, Cm 10 μM); Control mean 6548; mean of n = 4
[18] = test system: Fo.Ste2; test: Yeast GPCR biosensor, cognate agonist together with candidate antagonist Cm; type: cell-based, Fusarium oxysporum; details: Fo + Cm (Fo 0.5 μM, Cm 10 μM); Control mean 6141; mean of n = 4

In the case of CC(C)C[C@H](NC(=O)[C@H](CS)NC(=O)[C@@H](N)Cc1c[nH]c2ccccc12)C(=O)N[C@@H](CCCNC(=N)N)C(=O)N1CCC[C@H]1C(=O)NCC(=O)N[C@@H](CCC(N)=O)C(=O)N1CCC[C@H]1C(=O)N[C@@H](CS)C(=O)N[C@@H](Cc1c[nH]c2ccccc12)C(=O)O [Cm] (H-WCLRPGQPCW-OH; N-terminus and C-terminus assumed), the “Sup.Fig.3B Fg.Ste2 biosensor response, group mean” value [1] is reported as 14826, the “Activation of Fo.Ste2 biosensor, in words” value [2] is reported as “triggered the activation; also recorded: agonists for Fo.Ste2” and the Hillslope [2] is reported as 1.276. For the same compound, the logEC50 [2] was -6.973, the “Sup.Fig.3B Fo.Ste2 biosensor response, group mean” value ([2]; 10 μM) was 1362500 and the “Activation of Bb.Ste2 biosensor, in words” value [3] was “triggered the activation”. For the same compound, the “Sup.Fig.3B Bb.Ste2 biosensor response, group mean” value ([3]; 10 μM) was 1237500, the “Sup.Fig.3B Bc.Ste2 biosensor response, group mean” value [4] was 6819 and the “Effect on activation of Bc.Ste2 by Bc pheromone, in words” value ([5]; 0.0005 μM Bc pheromone in combination with 10 μM peptide, four biological replicates, Fig. 2G) was “completely abolished”. For the same compound, the “Sup.Fig.3B Bc.Ste2 biosensor response, group mean” value ([5]; Bc + Cm (Bc 0.0005 μM, Cm 10 μM), Control mean 6719, mean of n = 4) was 9961, the “Bc.Ste2 + pheromones, biosensor response, group mean” value ([5]; Bc + the named peptide, Bc alone mean 134.8, mean of n = 4) was 1.794 and the Hillslope ([5]; Bc.Ste2 + Cm (antagonist), four-parameter fit, best-fit value) was -289008. For the same compound, the “Excess of the antagonist compared to the agonist at IC50” value ([5]; Bc.Ste2, 0.0005 μM Bc pheromone) was 2,000 fold, the “Bc.Ste2 (activation)” value ([5]; Concentration 1e-6, replicate 1) was 49.9332 and the “Bc.Ste2 (activation)” value ([5]; Concentration 1e-6, replicate 2) was 46.5053. The “Bc.Ste2 (activation)” value ([5]; Concentration 1e-6, replicate 3) was 51.6445, the “Bc.Ste2 (activation)” value ([5]; Concentration 1e-6, replicate 4) was 48.6418 and the “Bc.Ste2 (activation)” value ([5]; Concentration 5e-6, replicate 1) was 5.491. The “Bc.Ste2 (activation)” value ([5]; Concentration 5e-6, replicate 2) was 4.729, the “Bc.Ste2 (activation)” value ([5]; Concentration 5e-6, replicate 3) was 4.1657 and the “Bc.Ste2 (activation)” value ([5]; Concentration 5e-6, replicate 4) was 2.595. The “Bc.Ste2 (activation)” value ([5]; Concentration 1e-5, replicate 1) was 1.904, the “Bc.Ste2 (activation)” value ([5]; Concentration 1e-5, replicate 2) was 1.546 and the “Bc.Ste2 (activation)” value ([5]; Concentration 1e-5, replicate 3) was 1.924. The “Bc.Ste2 (activation)” value ([5]; Concentration 1e-5, replicate 4) was 1.801, the “Bc.Ste2 (activation)” value ([5]; Concentration 1.00E-07, replicate 1) was 86.3218 and the “Bc.Ste2 (activation)” value ([5]; Concentration 1.00E-07, replicate 2) was 95.1098. The “Bc.Ste2 (activation)” value ([5]; Concentration 1.00E-07, replicate 3) was 89.2984, the “Bc.Ste2 (activation)” value ([5]; Concentration 1.00E-07, replicate 4) was 97.6612 and the “Bc.Ste2 (activation)” value ([5]; Concentration 1.00E-08, replicate 1) was 96.9525. For the same compound, the “Bc.Ste2 (activation)” value ([5]; Concentration 1.00E-08, replicate 2) was 96.5273, the “Bc.Ste2 (activation)” value ([5]; Concentration 1.00E-08, replicate 3) was 99.5039 and the “Bc.Ste2 (activation)” value ([5]; Concentration 1.00E-08, replicate 4) was 98.7952. The “Bc.Ste2 (activation)” value ([5]; Concentration 1.00E-09, replicate 1) was 101.063, the “Bc.Ste2 (activation)” value ([5]; Concentration 1.00E-09, replicate 2) was 96.9525 and the “Bc.Ste2 (activation)” value ([5]; Concentration 1.00E-09, replicate 3) was 99.9291. For the same compound, the “Bc.Ste2 (activation)” value ([5]; Concentration 1.00E-09, replicate 4) was 101.063, the “Bc.Ste2 (activation)” value ([5]; Concentration 5.00E-07, replicate 1) was 78.8094 and the “Bc.Ste2 (activation)” value ([5]; Concentration 5.00E-07, replicate 2) was 64.2098. For the same compound, the “Bc.Ste2 (activation)” value ([5]; Concentration 5.00E-07, replicate 3) was 79.0928, the “Bc.Ste2 (activation)” value ([5]; Concentration 5.00E-07, replicate 4) was 82.7782 and the “Bc.Ste2 (activation)” value ([5]; Concentration 5.00E-08, replicate 1) was 94.4011. The “Bc.Ste2 (activation)” value ([5]; Concentration 5.00E-08, replicate 2) was 98.7952, the “Bc.Ste2 (activation)” value ([5]; Concentration 5.00E-08, replicate 3) was 96.9525 and the “Bc.Ste2 (activation)” value ([5]; Concentration 5.00E-08, replicate 4) was 98.7952. For the same compound, the “Reduction in diploid formation” value [6] was “two-fold reduction”, the “Enrichment after mating, reads per million minus library before coculture” value [7] was “+7,508 RPM” and the “Enrichment after mating, reads per million minus library before coculture” value [8] was “consistently lacking”. For the same compound, the “Enrichment after mating, reads per million minus library before coculture” value [9] was “consistently lacking”, the “Enrichment after mating, reads per million minus library before coculture” value [10] was “consistently lacking” and the “Fold decline in diploids containing Fo.Ste2” value [11] was 0.2 fold. The “Mean 2 (SC + peptide), Fo share of diploids” value [11] was 0.087, the “Mean Diff, SC vs. + peptide” value ([11]; n = 3) was 0.4046 and the “barcode qPCR of diploids, Fg.Ste2 x Hj.Pheromone” value ([12]; SC + added peptide, individual replicates (n=3), SC alone: 0.003, 0.004, 0.001) was 0.028 and 0.017 and 0.029. The “barcode qPCR of diploids, Fg.Ste2 x Fo.Pheromone” value ([12]; SC + added peptide, individual replicates (n=3), SC alone: 0.005, 0.005, 0.013) was 0.014 and 0.066 and 0.033, the “barcode qPCR of diploids, Fg.Ste2 x no_Pheromone” value ([12]; SC + added peptide, individual replicates (n=3), SC alone: 0.012, 0.001, 0.003) was 0 and 0.143 and 0.133 and the “barcode qPCR of diploids, Fg.Ste2 x Bb.Pheromone” value ([12]; SC + added peptide, individual replicates (n=3), SC alone: 0.012, 0.009, 0.006) was 0.032 and 0.042 and 0.028. For the same compound, the “barcode qPCR of diploids, Fg.Ste2 x Fg.Pheromone” value ([12]; SC + added peptide, individual replicates (n=3), SC alone: 0.206, 0.237, 0.235) was 0.441 and 0.282 and 0.373, the “Fold increase in diploids containing Fg.Ste2” value ([12]; consortium in SC media, 10 μM external peptide, three biological replicates) was 2.2 fold and the “Mean 2 (SC + peptide), Bb share of diploids” value [13] was 0.01767. The “barcode qPCR of diploids, Bb.Ste2 x Fo.Pheromone” value [13] was 0.04 and 0.041 and 0.037, the “barcode qPCR of diploids, Bb.Ste2 x no_Pheromone” value [13] was 0.037 and 0.028 and 0.049 and the “Mean Diff, SC vs. + peptide” value ([13]; n = 3) was 0.02891. The “Mean 2 (SC + peptide), Hj share of diploids” value [14] was 0.004151, the “barcode qPCR of diploids, Hj.HPR2 x Bb.Pheromone” value [14] was 0 and the “barcode qPCR of diploids, Hj.HPR2 x Fg.Pheromone” value [14] was 0. For the same compound, the “barcode qPCR of diploids, Hj.HPR2 x no_Pheromone” value [14] was 0, the “Mean Diff, SC vs. + peptide” value ([14]; n = 3) was -0.002114 and the “barcode qPCR of diploids, no_GPCR x Fg.Pheromone” value ([15]; SC alone: 0, 0, 0) was 0 and 0.032 and 0.007. For the same compound, the “barcode qPCR of diploids, no_GPCR x Hj.Pheromone” value ([15]; SC alone: 0, 0, 0) was 0 (2×) and 0.052, the “barcode qPCR of diploids, no_GPCR x Bb.Pheromone” value ([15]; SC alone: 0, 0, 0.004) was 0 (2×) and 0.005 and the “barcode qPCR of diploids, no_GPCR x Fo.Pheromone” value ([15]; SC alone: 0, 0, 0.007) was 0.005 and 0 (2×). For the same compound, the “barcode qPCR of diploids, no_GPCR x no_Pheromone” value ([15]; SC alone: 0.001, 0.001, 0) was 0.027 and 0.026 and 0.002, the “Sup.Fig.3B Bb.Ste2 biosensor response, group mean” value [16] was 1335000 and the “Sup.Fig.3B Fg.Ste2 biosensor response, group mean” value [17] was 219822. For the same compound, the “Sup.Fig.3B Fo.Ste2 biosensor response, group mean” value [18] was 1377500.
